Measurements published in US9540391B2, “Isomannide derivatives as inhibitors of soluble epoxide hydrolase” (SANOFI, priority 2013, dated 2017).
Counter-ions that a name gives are not always drawn.

molecular target: T1, recombinant sEH (Homo sapiens, UniProt P34913); experiment: biochemical screening assay for inhibition of soluble epoxide hydrolase (fluorometric, Phome substrate)
T1 construct: made in house; host or cells: Sf9 insect cells
T1 sequence (P34913 1-555): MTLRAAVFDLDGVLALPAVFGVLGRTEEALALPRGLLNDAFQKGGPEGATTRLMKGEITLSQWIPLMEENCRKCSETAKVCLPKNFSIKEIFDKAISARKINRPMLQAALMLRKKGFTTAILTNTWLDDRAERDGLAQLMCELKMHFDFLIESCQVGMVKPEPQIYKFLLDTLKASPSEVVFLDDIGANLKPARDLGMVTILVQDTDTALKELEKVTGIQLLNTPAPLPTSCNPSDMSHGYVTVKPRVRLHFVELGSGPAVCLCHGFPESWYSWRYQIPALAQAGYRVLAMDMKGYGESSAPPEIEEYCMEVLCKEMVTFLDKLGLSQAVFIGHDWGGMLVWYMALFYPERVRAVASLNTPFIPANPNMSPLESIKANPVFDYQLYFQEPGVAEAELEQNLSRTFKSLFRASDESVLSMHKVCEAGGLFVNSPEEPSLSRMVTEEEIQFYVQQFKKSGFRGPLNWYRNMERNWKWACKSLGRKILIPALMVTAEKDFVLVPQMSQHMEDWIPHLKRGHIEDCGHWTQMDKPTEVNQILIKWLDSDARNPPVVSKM
In short: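 Human sEH from Sf9 cells (2 nM final) was pre-incubated 15 min at 30 °C with compound (0.0001–10 μM), then reacted 60 min at 30 °C with 5 μM Phome in 25 mM Hepes/0.01% albumin. Fluorescence of released 6-methoxy-2-naphthaldehyde was read before substrate and at end; IC50 from % inhibition.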

Row | IC50 [nM] | Structure (SMILES)
1 | 9 | O=C(NC1CCCCC1)N[C@H]1CO[C@H]2[C@@H]1OC[C@@H]2OCC(F)(F)F [Example 19, 1-Cyclohexyl-3-[(3S,3aR,6S,6aS)-6-(2,2,2-trifluoro-ethoxy)-hexahydro-furo[3,2-b]furan-3-yl]-urea]
2 | 3 | COC(=O)c1ccc(O[C@H]2CO[C@H]3[C@@H]2OC[C@@H]3NC(=O)NC2CCCCC2)cc1 [Example 10, 4-[(3S,3aS,6S,6aR)-6-(3-cyclohexyl-ureido)-hexahydro-furo[3,2-b]furan-3-yloxy]-benzoic acid methyl ester]
3 | 5 | O=C(NC1CCCCC1)N[C@H]1CO[C@H]2[C@@H]1OC[C@@H]2Oc1ccc(C(=O)O)cc1 [Example 11, 4-[(3S,3aS,6S,6aR)-6-(3-cyclohexyl-ureido)-hexahydro-furo[3,2-b]furan-3-yloxy]-benzoic acid]
4 | 190 | O=C(Nc1ccccc1)NC1COC2C(C=Cc3ccccc3)COC12 [Example 323, 1-Phenyl-3-[(3S,3aR,6R)-6-((S)-(Z)-styryl)-hexahydro-furo[3,2-b]furan-3-yl]-urea]
5 | 220 | O=C(NC1CCCCC1)N[C@H]1CO[C@H]2[C@@H]1OC[C@@H]2Oc1ccccc1CNCC1CCCO1 (stereo partly drawn) [Example 136, 1-Cyclohexyl-3-[(3S,3aR,6S,6aS)-6-(2-{[(tetrahydro-furan-2-ylmethyl)-ao]-methyl}-phenoxy)-hexahydro-furo[3,2-b]furan-3-yl]-urea; trifluoroacetate]
6 | 3 | Cc1ncccc1O[C@H]1CO[C@H]2[C@@H]1OC[C@@H]2NC(=O)NC1CC(C)CC(C)(C)C1 (stereo partly drawn) [Example 256, 1-[(3S,3aR,6S,6aS)-6-(2-Methyl-pyridin-3-yloxy)-hexahydro-furo[3,2-b]furan-3-yl]-3-(3,3,5-trimethyl-cyclohexyl)-urea]
7 | 16 | O=C(NC1CCCCC1)N[C@H]1CO[C@H]2[C@@H]1OC[C@@H]2OC(=O)N1CCOCC1 [Example 4, morpholine-4-carboxylic acid (3S,3aS,6S,6aR)-6-(3-cyclohexyl-ureido)-hexahydro-furo[3,2-b]furan-3-yl ester]
8 | 22 | O=C(Nc1ccc2c(c1)OCCO2)N[C@H]1CO[C@@H]2[C@@H](CCc3ccccc3)CO[C@@H]21 [Example 369, 1-(2,3-Dihydro-benzo[1,4]dioxin-6-yl)-3-((3S,3aR,6S,6aR)-6-phenethyl-hexahydro-furo[3,2-b]furan-3-yl)-urea]
9 | 24 | C[C@H](NC(=O)N[C@H]1CO[C@H]2[C@@H]1OC[C@@H]2Oc1ccc(F)cc1)C1CCCCC1 [Example 156, 1-((S)-1-Cyclohexyl-ethyl)-3-[(3S,3aR,6S,6aS)-6-(4-fluoro-phenoxy)-hexahydro-furo[3,2-b]furan-3-yl]-urea]
10 | 8 | CC1CCC(NC(=O)N[C@H]2CO[C@H]3[C@@H]2OC[C@@H]3Oc2ccc(F)cc2)CC1 (stereo partly drawn) [Example 151, 1-[(3S,3aR,6S,6aS)-6-(4-Fluoro-phenoxy)-hexahydro-furo[3,2-b]furan-3-yl]-3-(4-methyl-cyclohexyl)-urea]
11 | 41 | Cc1ncccc1O[C@H]1CO[C@H]2[C@@H]1OC[C@@H]2NC(=O)NC1CCCN(S(C)(=O)=O)C1 (stereo partly drawn) [Example 86, 1-(1-Methanesulfonyl-piperidin-3-yl)-3-[(3S,3aR,6S,6aS)-6-(2-methyl-pyridin-3-yloxy)-hexahydro-furo[3,2-b]furan-3-yl]-urea]
12 | 1 | O=C(NC1CCCCC1)N[C@H]1CO[C@H]2[C@@H]1OC[C@@H]2Oc1cccc2c1CCC2=O [Example 144, 1-Cyclohexyl-3-[(3S,3aR,6S,6aS)-6-(1-oxo-indan-4-yloxy)-hexahydro-furo[3,2-b]furan-3-yl]-urea]
13 | 2 | Cc1ncccc1O[C@H]1CO[C@H]2[C@@H]1OC[C@@H]2NC(=O)NC1CCC(C)(C)CC1 [Example 268, 1-(4,4-Dimethyl-cyclohexyl)-3-[(3S,3aR,6S,6aS)-6-(2-methyl-pyridin-3-yloxy)-hexahydro-furo[3,2-b]furan-3-yl]-urea]
14 | 3500 | Cc1ncccc1O[C@H]1CO[C@H]2[C@@H]1OC[C@@H]2NC(=O)NC1(C#N)CCOCC1 [Example 248, 1-(4-Cyano-tetrahydro-pyran-4-yl)-3-[(3S,3aR,6S,6aS)-6-(2-methyl-pyridin-3-yloxy)-hexahydro-furo[3,2-b]furan-3-yl]-urea]
15 | 1 | O=C(NC1CCCCC1)N[C@H]1CO[C@H]2[C@@H]1OC[C@@H]2Sc1ncc(Cl)cn1 [Example 52, 1-[(3S,3aR,6S,6aS)-6-(5-Chloro-pyrimidin-2-ylsulfanyl)-hexahydro-furo[3,2-b]furan-3-yl]-3-cyclohexyl-urea]
16 | 8 | O=C(NC1CCCCC1)N[C@H]1CO[C@H]2[C@@H]1OC[C@@H]2SC1CCS(=O)(=O)C1 (stereo partly drawn) [Example 25, 1-Cyclohexyl-3-[(3S,3aR,6S,6aS)-6-(1,1-dioxo-tetrahydro-1λ6-thiophen-3-ylsulfanyl)-hexahydro-furo[3,2-b]furan-3-yl]-urea]
17 | 2 | O=C(NC1CCCCC1)N[C@H]1CO[C@H]2[C@@H]1OC[C@@H]2Oc1cc(F)ccc1Cl [Example 131, 1-[(3S,3aR,6S,6aS)-6-(2-Chloro-5-fluoro-phenoxy)-hexahydro-furo[3,2-b]furan-3-yl]-3-cyclohexyl-urea]
18 | 62 | O=C(Nc1cccc(C(F)(F)F)c1)N[C@H]1CO[C@H]2[C@@H]1OC[C@@H]2/C=C\c1ccsc1 [Example 346, 1-[(3S,3aR,6S,6aR)-6-((Z)-2-Thiophen-3-yl-vinyl)-hexahydro-furo[3,2-b]furan-3-yl]-3-(3-trifluoromethyl-phenyl)-urea]
19 | 20 | O=C(NC1CCCCC1)N[C@H]1CO[C@H]2[C@@H]1OC[C@@H]2Oc1ccccc1CN1CCCCC1 [Example 135, 1-Cyclohexyl-3-[(3S,3aR,6S,6aS)-6-(2-piperidin-1-ylmethyl-phenoxy)-hexahydro-furo[3,2-b]furan-3-yl]-urea; trifluoroacetate]
20 | 59 | Cc1ncccc1OC1COC2C(NC(=O)NC3CCCN(C(=O)C(C)C)C3)COC12 [Example 84, 1-(1-Isobutyryl-piperidin-3-yl)-3-[(3S,-3aR,6S,6aS)-6-(2-methyl-pyridin-3-yloxy)-hexahydro-furo[3,2-b]furan-3-yl]-urea]
21 | 68 | O=C(Nc1cccc(C(F)(F)F)c1)N[C@H]1CO[C@@H]2[C@@H](CCc3ccccc3)CO[C@@H]21 [Example 368, 1-((3S,3aR,6S,6aR)-6-Phenethyl-hexahydro-furo[3,2-b]furan-3-yl)-3-(3-trifluoromethyl-phenyl)-urea]
22 | 2 | CC(=O)Nc1cccc(O[C@H]2CO[C@H]3[C@@H]2OC[C@@H]3NC(=O)NC2CCCCC2)c1 [Example 102, N-{3-[(3S,3aS,6S,6aR)-6-(3-Cyclohexyl-ureido)-hexahydro-furo[3,2-b]furan-3-yloxy]-phenyl}-acetamide]
23 | 80 | O=C(Nc1ccc(OCc2ccccc2)cc1)NC1COC2C(CCc3ccccc3)COC12 [Example 355, 1-(4-Benzyloxy-phenyl)-3-[(3S,3aR,6R)-6-((S)-phenethyl)-hexahydro-furo[3,2-b]furan-3-yl]-urea]
24 | 10 | Cc1ncccc1O[C@H]1CO[C@H]2[C@@H]1OC[C@@H]2NC(=O)NC1CCCN(C(=O)C(F)(F)F)C1 (stereo partly drawn) [Example 87, 1-[(3S,3aR,6S,6aS)-6-(2-Methyl-pyridin-3-yloxy)-hexahydro-furo[3,2-b]furan-3-yl]-3-[1-(2,2,2-trifluoro-acetyl)-piperidin-3-yl]-urea]
25 | 1 | Cc1ncccc1O[C@H]1CO[C@H]2[C@@H]1OC[C@@H]2NC(=O)NC1CCC(C)CC1C (stereo partly drawn) [Example 276, 1-(2,4-Dimethyl-cyclohexyl)-3-[(3S,3aR,6S,6aS)-6-(2-methyl-pyridin-3-yloxy)-hexahydro-furo[3,2-b]furan-3-yl]-urea]
26 | 1 | O=C(NC1CCCCC1)N[C@H]1CO[C@H]2[C@@H]1OC[C@@H]2Oc1ccccc1-c1ccccc1 [Example 23, 1-[(3S,3aR,6S,6aS)-6-(Biphenyl-2-yloxy)-hexahydro-furo[3,2-b]furan-3-yl]-3-cyclohexyl-urea]
27 | 3 | Cc1ccc(S[C@H]2CO[C@H]3[C@@H]2OC[C@@H]3NC(=O)NC2CCCCC2)nn1 [Example 57, 1-Cyclohexyl-3-[(3S,3aR,6S,6aS)-6-(6-methyl-pyridazin-3-ylsulfanyl)-hexahydro-furo[3,2-b]furan-3-yl]-urea]
28 | 182 | Cc1ncccc1O[C@H]1CO[C@H]2[C@@H]1OC[C@@H]2NC(=O)NC1CCCN(C(=O)c2ccc(F)cc2)C1 (stereo partly drawn) [Example 83, 1-[1-(4-fluoro-benzoyl)-piperidin-3-yl]-3-[(3S,3aR,6S,6aS)-6-(2-methyl-pyridin-3-yloxy)-hexahydro-furo[3,2-b]furan-3-yl]-urea]
29 | 1560 | Cc1ncccc1O[C@H]1CO[C@H]2[C@@H]1OC[C@@H]2NC(=O)NCCN1CCCCC1=O [Example 251, 1-[(3S,3aR,6S,6aS)-6-(2-Methyl-pyridin-3-yloxy)-hexahydro-furo[3,2-b]furan-3-yl]-3-[2-(2-oxo-piperidin-1-yl)-ethyl]-urea]
30 | 2 | Cc1ncccc1O[C@H]1CO[C@H]2[C@@H]1OC[C@@H]2NC(=O)NC1C(C)CCCC1C (stereo partly drawn) [Example 269, 1-(2,6-Dimethyl-cyclohexyl)-3-[(3S,3aR,6S,6aS)-6-(2-methyl-pyridin-3-yloxy)-hexahydro-furo[3,2-b]furan-3-yl]-urea]
